Test results reported in US20230057984A1, “NORMALIZATION OF CULTURE OF CORNEAL ENDOTHELIAL CELLS” (KYOTO PREFECTURAL PUBLIC UNIVERSITY CORPORATION, priority 2011, published 2023).

Columns and labels:
[1] = test system: Human corneal endothelial cells; test: ELISA of type 1 collagen in culture supernatant of HCEC; format: cell-based; details: HCEC with vs without SB431542, n=5, P<0.05
Experimental: Corneal endothelial cells were mechanically exfoliated together with basement membranes from research corneas purchased from the Seattle bank, followed by exfoliating from the basement membranes using collagenase for collection, and then primary culturing. […] The collected human corneal endothelial cells were divided into two, and one group of them was cultured with the base culture medium as a control, and the other group of them was cultured with a base culture medium with SB431542 (TOCRIS, catalog number: 1614) added thereto such that the final concentration would be 1 μmol/L. • Enzyme-linked immunosorbent assay (ELISA): type 1 collagen in a culture supernatant of HCEC was assayed by using a ELISA kits for Collagen Type I Alpha 2 (COL1a2) (Uscn Life Science Inc., Wuhan, China) in accordance with the instruction manual of the manufacturer. Culture supernatants derived from HCEC, cultured together with SB431542 or without SB431542, were used for respective groups (n=5).

[2] = test system: Human corneal endothelial cells; test: Immunostaining and Western blot of Na+/K+-ATPase and ZO-1 in human corneal endothelial cells with SB431542 (FIG. 9A A, B); format: cell-based; details: HCEC
Experimental: For tissue staining examination, cultured MCECs or HCECs were put into Lab-Tek™ Chamber Slides™ (NUNC A/S, Roskilde, Denmark), fixed with 4% formaldehyde for 10 minutes at a room temperature (RT), and incubated for 30 minutes with 1% bovine serum albumin (BSA). Specifically, cultured MCECs or HCECs on the Lab-Tek™ Chamber Slides™ (NUNCA/S, Roskilde, Denmark) were fixed at a room temperature for 10 minutes in 4% formaldehyde, followed by incubation for 30 minutes together with 1% bovine serum albumin (BSA). In order to examine the phenotype of CEC, immunohistochemical analysis was directed to a protein associated with tight junction, ZO-1 (Zymed Laboratories, Inc., South San Francisco, Calif.), a protein associated with the pumping function, Na^+/K^+-ATPase (Upstate Biotec, Inc., Lake Placid, N.Y.), fibronectin (BD, Franklin Lakes, N.J.), and actine. As markers associated with the function of CEC, ZO-1 and Na^+/K^+-ATPase were used; fibronectin and type 1 collagen were used to evaluate the change in a fibroblastic manner; and staining of actine was used to evaluate the phenotype of the cells. Staining of ZO-1, Na^+/K^+-ATPase, type 1 collagen and fibronectin was each performed using 1:200 dilution of ZO-1 polyclonal antibody, Na^+/K^+-ATPase monoclonal antibody, and fibronectin monoclonal antibody. As to secondary antibody, 1:2000 dilution of Alexa Fluor (registered trademark) 488 label or Alexa Fluor (registered trademark) 594 label goat antimouse IgG (Life Technologies) was used. Staining of actine was performed using 1:400 dilution of Alexa Fluor (registered trademark) 488 label phalloidin (Life Technologies). […] Next, the slides were observed through a fluorescence microscope (TCS SP2 AOBS; Leica Microsystems, Welzlar, Germany).
Next, reaction was allowed for 1 hour at a room temperature with ALEXA FLUOR 488 (INVITROGEN (catalog number: A21206)) and ALEXA FLUOR 594 (INVITROGEN (catalog number: A21203)), diluted with TBS-T by 1,000 fold. […] After washing, bands were detected using an ECL-ADVAVCE Western Blotting Detection Kit (GE healthcare Japan (catalog number: RPN2135V)). […]

NC(=O)c1ccc(-c2nc(-c3ccc4c(c3)OCO4)c(-c3ccccn3)[nH]2)cc1 [SB431542]
secretion of collagen type 1 to the cell supernatant (ELISA) [1]: significantly down-regulated
expression of Na+/K+-ATPase and ZO-1 (immunostaining) ([2]; 1 μM SB431542, in normal culture medium only a subpopulation of cells): expression was recognized in all the cells
intracellular localization of Na+/K+-ATPase and ZO-1 ([2]; SB431542): allows for the intracellular localization of Na^+/K^+-ATPase and ZO-1 in a cell membrane
protein expression of Na+/K+-ATPase and ZO-1 (Western blot) ([2]; SB431542 0.1 μM, 1 μM, 10 μM): makes it possible to maintain the protein expression thereof
